Our source for the IC50 values is publication PMC5676566 (Nature chemical biology, 2017).

The target in the assay is BG505 Env (pseudovirus) (Human immunodeficiency virus 1, UniProt Q2N0S5). Description: pseudovirus neutralization, TZM-bl cells, luciferase. It is filed as cell-based. Particulars: 1% DMSO; separate panel assay printed too (Supplementary Table 1).

SMILES strings stand for the structures.

Regarding `COc1ccnc2[nH]cc(C(=O)C(=O)N3CCN(C(=O)c4ccccc4)C[C@H]3C)c12` [BMS-378806], the half-inhibitory concentration (IC50) amounted to 1190 nM.
